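48-hour exposure; five concentrations; linearly interpolated endpoints. GI50 marks 50% less growth. TGI is the concentration that stops growth completely.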 A value given as a limit tells only on which side of the number the result lay.

The text below walks through data of PubChem BioAssay (NCI).

Some test systems named below: SF-539 CNS; MALME-3M melanoma; HCT-15 colon; ACHN renal; SF-268 CNS; UO-31 renal; U251 CNS; M14 melanoma; EKVX NSCLC; DU-145 prostate.
What all share (assay): NCI anticancer screen, dose series, 48 h

With `C#CCC1(C(=O)OCC)C(=O)c2ccccc2N(C)C1=O` (stereo not drawn), the TGI in the assay with SF-539 CNS, with MALME-3M melanoma, with HCT-15 colon, in the assay with ACHN renal, in the assay with SF-268 CNS and in the assay on UO-31 renal was over 100 µM each time. Moreover, the TGI in the assay with U251 CNS, with M14 melanoma and in the assay with EKVX NSCLC was over 100 µM each time.

Take `CC(=O)O[C@H]1CC[C@@]2(C)[C@H](CC[C@@H]3[C@@H]2CC[C@]2(C)[C@@H](c4ccc(=O)oc4)C[C@H]4O[C@]342)C1`: the TGI with SF-539 CNS turned out to be 1.72 µM; in the assay on MALME-3M melanoma, 2.61 µM; in the assay with HCT-15 colon, 29.5 µM; with SF-268 CNS it was 1.29 µM; with UO-31 renal it was 3.18 µM; in the assay on U251 CNS, 4.6 µM. In addition, in the assay with EKVX NSCLC, the TGI turned out to be 2.39 µM.

As for `N/C(=N\Nc1ccc(S(N)(=O)=O)cc1)c1cnccn1`, the TGI with MALME-3M melanoma, in the assay with DU-145 prostate, in the assay on HCT-15 colon, with ACHN renal, in the assay with SF-268 CNS and in the assay with UO-31 renal was over 100 µM throughout. For the same compound, the TGI with U251 CNS, in the assay on M14 melanoma and in the assay with EKVX NSCLC was over 100 µM each time.

Consider `Cc1nc2ccc(Cl)cc2c2c1CCN2c1ccccc1`, for which the TGI with SF-539 CNS came to 28.8 µM; with MALME-3M melanoma it was 32.3 µM; in the assay on DU-145 prostate it was 63.8 µM; with HCT-15 colon, 95.3 µM; with ACHN renal, 62.4 µM; in the assay with SF-268 CNS, 83.9 µM. In addition, the TGI in the assay on UO-31 renal was found to be 23.8 µM; with U251 CNS, 35.2 µM; with EKVX NSCLC, 68.2 µM.

For the compound `CC(C)(C)OC(=O)n1cc(C2CN(O)C(=O)C23CCC(=O)N3Cc2ccccc2)c2ccccc21` (stereo not drawn), the TGI in the assay with SF-539 CNS, in the assay with MALME-3M melanoma, in the assay on DU-145 prostate, with SF-268 CNS, in the assay on UO-31 renal and in the assay on U251 CNS was over 100 µM each time. Further, the TGI is over 100 µM in the assay with M14 melanoma and 47.7 µM in the assay with EKVX NSCLC.

With `Cc1cc2c(c(=O)n1C)SCC2`, the TGI in the assay on MALME-3M melanoma, in the assay with DU-145 prostate, in the assay with HCT-15 colon, in the assay on ACHN renal, with SF-268 CNS and with UO-31 renal was over 100 µM throughout. The TGI in the assay with U251 CNS and in the assay with M14 melanoma was over 100 µM each time.

Regarding `CO[C@]1(CN2CCN3CCCC[C@@H]3C2)/C=C/C[C@H](C)[C@@H](C)S(=O)(=O)NC(=O)c2ccc3c(c2)N(C[C@@H]2CC[C@H]21)C[C@@]1(CCCc2cc(Cl)ccc21)CO3`, the GI50 with SF-539 CNS was 1.39 µM; in the assay with DU-145 prostate, 2.4 µM; in the assay on ACHN renal, 1.86 µM; in the assay on UO-31 renal it was 1.43 µM; in the assay on EKVX NSCLC, 1.55 µM. Also, the TGI came to 2.72 µM in the assay with SF-539 CNS; 6.54 µM with DU-145 prostate; 3.9 µM in the assay on ACHN renal; 2.93 µM in the assay with UO-31 renal; 5.1 µM with EKVX NSCLC.

As to `Cc1csc(NC(=NCCN2CCOCC2)Nc2nc(C)cs2)n1`, the TGI in the assay with SF-539 CNS, in the assay on MALME-3M melanoma, with HCT-15 colon, with SF-268 CNS, with UO-31 renal and in the assay on U251 CNS was over 100 µM in each case. In addition, in the assay on EKVX NSCLC, the TGI was over 100 µM.

Turning to `O=C1c2ccccc2C(=O)N1c1nc(-c2ccc(Cl)cc2)cc(N2N=C(c3ccc(Br)cc3)CC2c2ccccc2)n1` (stereo not drawn), the TGI with SF-539 CNS is 4.41 µM; in the assay with MALME-3M melanoma, over 60.6 µM; with DU-145 prostate, over 23.3 µM; in the assay with HCT-15 colon, 7.14 µM; in the assay on ACHN renal it was over 21.7 µM; in the assay with SF-268 CNS, 7.72 µM. Besides, the TGI is 5.99 µM in the assay on U251 CNS, over 36.1 µM in the assay on M14 melanoma and 5.99 µM in the assay on EKVX NSCLC.

Turning to `C=C(C)[C@@H]1CC[C@]2(C(=O)O)CC[C@]3(C)[C@H](CCC4[C@@]5(C)CC[C@H](C(=O)/C=C/c6ccc(O)c(O)c6)C(C)(C)[C@@H]5CC[C@]43C)[C@@H]12` (stereo partly drawn), the TGI in the assay on DU-145 prostate is 28.1 µM; with HCT-15 colon, 26.8 µM; in the assay on ACHN renal it was 6.51 µM; in the assay on SF-268 CNS, over 100 µM; with UO-31 renal, 12.9 µM; in the assay with M14 melanoma it was 14.7 µM. The TGI in the assay on EKVX NSCLC is over 100 µM.

`CC(=O)CC(=O)CCC(=O)O`: the TGI with SF-539 CNS, in the assay on MALME-3M melanoma, with HCT-15 colon, in the assay with ACHN renal, with SF-268 CNS and in the assay on UO-31 renal was over 100 µM throughout. The TGI in the assay with U251 CNS, in the assay with M14 melanoma and in the assay with EKVX NSCLC was over 100 µM each time.

Consider `Cn1c2ccccc2n2c3ncccc3c(=S)c(C#N)c12`, for which the TGI with MALME-3M melanoma, in the assay on DU-145 prostate, in the assay with HCT-15 colon, in the assay with ACHN renal, in the assay with SF-268 CNS and in the assay with UO-31 renal was over 100 µM in each case. The TGI in the assay with U251 CNS, in the assay on M14 melanoma and in the assay on EKVX NSCLC was over 100 µM throughout.

`O=C1C=CC(=O)c2c(Cl)ccc(O)c21`: the TGI was over 56.8 µM with SF-539 CNS; 32.7 µM in the assay with MALME-3M melanoma; 39.1 µM with HCT-15 colon; 33.4 µM in the assay with SF-268 CNS; over 100 µM with UO-31 renal; over 100 µM in the assay on U251 CNS. In addition, in the assay with EKVX NSCLC, the TGI worked out at 43 µM.

On to `CCOC(=O)c1cn(C)c(=S)n2c1nc1ccccc12`, for which the TGI with SF-539 CNS, with DU-145 prostate, in the assay on HCT-15 colon, with ACHN renal, in the assay on UO-31 renal and in the assay on U251 CNS was over 100 µM each time. For the same compound, the TGI with M14 melanoma and in the assay on EKVX NSCLC was over 100 µM in each case.

In the case of `COc1ccccc1CNCCCCCCCCCCCCN1C(=O)c2ccc3c4c(ccc(c24)C1=O)C(=O)N(CCCCCCCCCCCCNCc1ccccc1OC)C3=O`, the GI50 is over 50 µM in the assay on MALME-3M melanoma; 2.91 µM in the assay on DU-145 prostate; over 50 µM in the assay with HCT-15 colon; over 50 µM with ACHN renal; over 50 µM in the assay with SF-268 CNS; over 50 µM with EKVX NSCLC. Besides, the TGI in the assay on MALME-3M melanoma, in the assay with DU-145 prostate, with HCT-15 colon, in the assay with ACHN renal, with SF-268 CNS and with EKVX NSCLC was over 50 µM throughout.
